Here are results for 27 compounds from patent US11179383B2 (Gilead Sciences, Inc., priority 2018, dated 2021).

Each structure is given as a SMILES string.

The term EC50 denotes the concentration that produces a half-maximal response.

The experiment has as its target T1, α4β7 integrin (Homo sapiens, UniProt P13612+P26010).
T1 construct: monitoring the capture of α4β7 integrin expressing cells on a recombinant MadCAM-1 extracellular domain-coated plate; endogenous in cells; host or cells: RPMI8866 cells
T1 sequence (P13612 34-1032): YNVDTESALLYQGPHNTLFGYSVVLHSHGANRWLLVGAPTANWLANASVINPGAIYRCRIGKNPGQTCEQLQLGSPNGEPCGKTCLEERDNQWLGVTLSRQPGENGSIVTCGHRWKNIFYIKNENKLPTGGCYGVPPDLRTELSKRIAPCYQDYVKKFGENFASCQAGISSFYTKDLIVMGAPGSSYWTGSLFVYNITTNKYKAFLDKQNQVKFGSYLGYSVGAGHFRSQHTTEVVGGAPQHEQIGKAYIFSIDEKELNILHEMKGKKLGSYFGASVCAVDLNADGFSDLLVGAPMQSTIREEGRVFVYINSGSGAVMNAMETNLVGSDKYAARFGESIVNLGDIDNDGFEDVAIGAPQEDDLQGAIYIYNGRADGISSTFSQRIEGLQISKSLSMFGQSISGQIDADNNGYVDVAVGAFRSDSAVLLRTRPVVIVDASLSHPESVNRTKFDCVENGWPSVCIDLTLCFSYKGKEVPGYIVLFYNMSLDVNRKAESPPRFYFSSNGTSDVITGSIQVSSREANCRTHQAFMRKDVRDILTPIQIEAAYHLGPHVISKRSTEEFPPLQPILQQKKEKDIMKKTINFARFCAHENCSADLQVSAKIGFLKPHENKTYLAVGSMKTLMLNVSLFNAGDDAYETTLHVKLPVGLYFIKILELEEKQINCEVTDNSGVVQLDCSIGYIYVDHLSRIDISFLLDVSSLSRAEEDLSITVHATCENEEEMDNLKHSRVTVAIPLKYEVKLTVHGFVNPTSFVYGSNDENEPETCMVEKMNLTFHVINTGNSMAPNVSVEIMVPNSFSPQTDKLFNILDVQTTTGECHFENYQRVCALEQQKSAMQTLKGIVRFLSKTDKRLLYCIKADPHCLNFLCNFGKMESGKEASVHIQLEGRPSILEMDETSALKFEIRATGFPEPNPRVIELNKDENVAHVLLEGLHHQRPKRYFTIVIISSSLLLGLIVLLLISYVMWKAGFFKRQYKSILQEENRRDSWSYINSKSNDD
T1 sequence (P26010 20-798): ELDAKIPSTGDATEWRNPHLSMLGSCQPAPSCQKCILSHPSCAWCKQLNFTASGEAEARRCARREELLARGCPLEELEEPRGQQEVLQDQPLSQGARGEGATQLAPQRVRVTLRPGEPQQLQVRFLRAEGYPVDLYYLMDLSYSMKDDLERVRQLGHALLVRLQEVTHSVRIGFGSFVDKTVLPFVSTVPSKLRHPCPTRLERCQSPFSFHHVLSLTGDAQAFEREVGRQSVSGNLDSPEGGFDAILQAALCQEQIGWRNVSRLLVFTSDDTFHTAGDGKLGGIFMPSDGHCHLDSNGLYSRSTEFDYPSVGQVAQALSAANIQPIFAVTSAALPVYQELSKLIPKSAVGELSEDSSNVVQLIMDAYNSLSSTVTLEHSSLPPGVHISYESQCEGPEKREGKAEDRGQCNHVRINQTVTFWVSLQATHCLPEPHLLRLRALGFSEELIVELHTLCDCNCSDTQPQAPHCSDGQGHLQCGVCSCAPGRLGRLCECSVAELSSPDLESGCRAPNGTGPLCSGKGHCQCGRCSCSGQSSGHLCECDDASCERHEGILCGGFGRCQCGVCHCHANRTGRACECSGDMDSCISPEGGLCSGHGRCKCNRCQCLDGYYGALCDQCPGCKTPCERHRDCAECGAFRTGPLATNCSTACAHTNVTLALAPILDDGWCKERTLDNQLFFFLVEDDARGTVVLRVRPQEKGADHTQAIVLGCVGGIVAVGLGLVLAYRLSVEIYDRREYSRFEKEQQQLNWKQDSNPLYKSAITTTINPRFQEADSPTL
The experiment is described as follows: α4β7 Integrin Cell Capture Assay. The note with it: capture of α4β7 integrin expressing RPMI8866 cells on recombinant MadCAM-1 extracellular domain-coated plate; DMEM+0.5% FBS+0.5 mM MnCl2; read-out: EC50 α4β7. It counts as cell-based. How it is done:
α4β7 Integrin Cell Capture Assay
The potency of inhibitors in preventing α4β7 integrin interaction with MadCAM-1 was measured by monitoring the capture of α4β7 integrin expressing cells on a recombinant MadCAM-1 extracellular domain-coated plate.
384-Well plates (Corning 3702) were coated with MadCAM-1 extracellular domain by dispensing 20 μL of MAdCAM-1 at 1.0 μg/mL per well and incubating overnight at 4° C. The plates were then washed with PBS and blocked with 3% BSA for 2 hours before being washed again.
RPMI8866 cells were spun down and re-suspended in assay medium (DMEM+0.5% FBS+0.5 mM MnCl2) at a density of 0.5×10^6 cells/mL. The cells were then dispensed (60 μL/well) to a 384-well plate (Greiner 781280) that was previously spotted with 60 nL of test compound per well. The plates were incubated at 37° C. for 1 hour. 50 μL of cells were transferred to the blocked, MadCAM-1-coated plates and incubated for 30 minutes at 37° C. 10 μL of 12% glutaraldehyde containing Hoechst 33342 (0.06 mg/mL) was added to the cells (2% glutaraldehyde and 0.01 mg/mL final concentrations). The plates were incubated for 90 minutes at room temperature. The plates were then washed 3 times with 70 μL of PBS per well and imaged on a Cellomics ArrayScan instrument. The cells that were bound to the plate were counted and plotted against the compound concentration to determine the EC50 of the test compounds.
For the compound `Cc1c(-c2ccc(C[C@H](NC(=O)c3c(F)cc(N4CCOC[C@@H]4C(F)(F)F)cc3F)C(=O)O)c3ncccc23)c(=O)n(C)c2ccc(F)cc12` (single isomer, unassigned) [Example 87], the EC50 worked out at 2.9 nM.

Turning to `Cc1c(-c2ccc(C[C@H](NC(=O)c3c(F)cc(N4CCOC[C@@H]4C(F)(F)F)cc3F)C(=O)O)c3ncccc23)c(=O)n(C)c2ccc(F)cc12` (single isomer, unassigned) [Example 88], the EC50 stood at 0.1 nM.

On to `COc1cc(F)c(F)cc1-c1ccc(C[C@H](NC(=O)c2c(Cl)cccc2Cl)C(=O)O)c2nccc(Cl)c12` (single isomer, unassigned) [Example 95], for which the concentration giving a half-maximal response (EC50) came to 15.2 nM.

As to `COc1cc(F)c(F)cc1-c1ccc(C[C@H](NC(=O)c2c(Cl)cccc2Cl)C(=O)O)c2nccc(Cl)c12` (single isomer, unassigned) [Example 96], the half-maximal effective concentration (EC50) was found to be 572 nM.

Take `COc1cc(F)c(F)cc1-c1ccc(C[C@H](NC(=O)c2c(Cl)cccc2Cl)C(=O)O)c2nccc(C)c12` (single isomer, unassigned) [Example 98]: the EC50 stood at 469 nM.

In the case of `COc1cc(F)c(F)cc1-c1ccc(C[C@H](NC(=O)c2c(Cl)cccc2Cl)C(=O)O)c2nccc(C)c12` (single isomer, unassigned) [Example 99], the concentration giving a half-maximal response (EC50) was found to be 50.4 nM.

Regarding `Cc1c(-c2ccc(C[C@H](NC(=O)c3c(Cl)cccc3Cl)C(=O)O)c3ccccc23)c(=O)n(C)c(=O)n1C` (single isomer, unassigned) [Example 109], the 50% effective concentration (EC50) was 2.1 nM.

Turning to `Cc1c(-c2ccc(C[C@H](NC(=O)c3c(Cl)cccc3Cl)C(=O)O)c3ccccc23)c(=O)n(C)c(=O)n1C` (single isomer, unassigned) [Example 110], the concentration for a half-maximal effect (EC50) was 14.2 nM.

As to `Cc1c(-c2ccc(C[C@H](NC(=O)c3c(Cl)cccc3Cl)C(=O)O)c3ccccc23)c(=O)n(C)c2ccccc12` (single isomer, unassigned) [Example 117], the EC50 was found to be 82 nM.

Regarding `Cc1c(-c2ccc(C[C@H](NC(=O)c3c(Cl)cccc3Cl)C(=O)O)c3ccccc23)c(=O)n(C)c2ccccc12` (single isomer, unassigned) [Example 118], the EC50 was determined as 2.5 nM.

`Cc1c(-c2ccc(C[C@H](NC(=O)c3c(F)cccc3F)C(=O)O)c3ccccc23)c(=O)n(C)c2ccccc12` (single isomer, unassigned) [Example 119]: the concentration for a half-maximal effect (EC50) turned out to be 82.9 nM.

As for `Cc1c(-c2ccc(C[C@H](NC(=O)c3c(F)cccc3F)C(=O)O)c3ccccc23)c(=O)n(C)c2ccccc12` (single isomer, unassigned) [Example 120], the EC50 amounted to 1.5 nM.

For `COc1cc(C)n(C)c(=O)c1-c1ccc(C[C@H](NC(=O)c2c(F)cc(N3CCOC[C@@H]3C(F)(F)F)cc2F)C(=O)O)c2ccccc12` (single isomer, unassigned) [Example 124], the half-maximal effective concentration (EC50) is 0.2 nM.

With `COc1cc(C)n(C)c(=O)c1-c1ccc(C[C@H](NC(=O)c2c(F)cc(N3CCOC[C@@H]3C(F)(F)F)cc2F)C(=O)O)c2ccccc12` (single isomer, unassigned) [Example 125], the EC50 came to 0.5 nM.

For `Cc1cc(C)n(C)c(=O)c1-c1ccc(C[C@H](NC(=O)c2c(F)cc(N3CCOC[C@@H]3C(F)(F)F)cc2F)C(=O)O)c2ccccc12` (single isomer, unassigned) [Example 126], the EC50 came out at 6.4 nM.

Turning to `Cc1cc(C)n(C)c(=O)c1-c1ccc(C[C@H](NC(=O)c2c(F)cc(N3CCOC[C@@H]3C(F)(F)F)cc2F)C(=O)O)c2ccccc12` (single isomer, unassigned) [Example 127], the half-maximal effective concentration (EC50) turned out to be 0.4 nM.

Consider `Cc1cc(C(F)(F)F)c(-c2ccc(C[C@H](NC(=O)c3c(F)cc(N4CCOC[C@@H]4C(F)(F)F)cc3F)C(=O)O)c3ccccc23)c(=O)n1C` (single isomer, unassigned) [Example 128], for which the EC50 stood at 1.7 nM.

For `Cc1cc(C(F)(F)F)c(-c2ccc(C[C@H](NC(=O)c3c(F)cc(N4CCOC[C@@H]4C(F)(F)F)cc3F)C(=O)O)c3ccccc23)c(=O)n1C` (single isomer, unassigned) [Example 129], the half-maximal effective concentration (EC50) stood at 0.1 nM.

As to `CC[C@@H](Nc1cc(F)c(C(=O)N[C@@H](Cc2ccc(-c3c(OC)cc(C)n(C)c3=O)c3ccccc23)C(=O)O)c(F)c1)C(F)(F)F` (single isomer, unassigned) [Example 130], the EC50 is 0.6 nM.

With `CC[C@@H](Nc1cc(F)c(C(=O)N[C@@H](Cc2ccc(-c3c(OC)cc(C)n(C)c3=O)c3ccccc23)C(=O)O)c(F)c1)C(F)(F)F` (single isomer, unassigned) [Example 131], the EC50 was 0.5 nM.

On to `CC[C@@H](Nc1cc(F)c(C(=O)N[C@@H](Cc2ccc(-c3c(C)cc(C)n(C)c3=O)c3ccccc23)C(=O)O)c(F)c1)C(F)(F)F` (single isomer, unassigned) [Example 132], for which the 50% effective concentration (EC50) was determined as 13.7 nM.

For `CC[C@@H](Nc1cc(F)c(C(=O)N[C@@H](Cc2ccc(-c3c(C)cc(C)n(C)c3=O)c3ccccc23)C(=O)O)c(F)c1)C(F)(F)F` (single isomer, unassigned) [Example 133], the concentration giving a half-maximal response (EC50) is 0.5 nM.

Consider `CC[C@@H](Nc1cc(F)c(C(=O)N[C@@H](Cc2ccc(-c3c(C(F)(F)F)cc(C)n(C)c3=O)c3ccccc23)C(=O)O)c(F)c1)C(F)(F)F` (single isomer, unassigned) [Example 134], for which the 50% effective concentration (EC50) came to 8.3 nM.

Consider `CC[C@@H](Nc1cc(F)c(C(=O)N[C@@H](Cc2ccc(-c3c(C(F)(F)F)cc(C)n(C)c3=O)c3ccccc23)C(=O)O)c(F)c1)C(F)(F)F` (single isomer, unassigned) [Example 135], for which the EC50 was 1 nM.

In the case of `CC[C@@H](Nc1cc(F)c(C(=O)N[C@@H](Cc2ccc(-c3c(OC)cnn(C)c3=O)c3ccccc23)C(=O)O)c(F)c1)C(F)(F)F` (single isomer, unassigned) [Example 136], the concentration giving a half-maximal response (EC50) is 0.8 nM.

On to `CC[C@@H](Nc1cc(F)c(C(=O)N[C@@H](Cc2ccc(-c3c(OC)cnn(C)c3=O)c3ccccc23)C(=O)O)c(F)c1)C(F)(F)F` (single isomer, unassigned) [Example 137], for which the EC50 is 0.9 nM.

On to `CCOCc1cc(OC)c(-c2ccc(C[C@@H](NC(=O)c3c(F)cc(NS(=O)(=O)c4ccc(-c5ccnc(F)c5)cc4)cc3F)C(=O)O)c3c2cnn3C)c(OC)c1` (single isomer, unassigned) [Example 145], for which the EC50 came to 34.9 nM.
